The results in this text go back to patent US9527859B2, “Amidopyridine derivative and use thereof” (Mitsubishi Tanabe Pharma Corporation, priority 2012, dated 2016).

Each structure is given as a SMILES string.

In the assay the test system is production of IL-17 in mouse splenocytes stimulated by recombinant mouse interleukin-23. Kind of assay: Production of IL-17 induced when mouse splenocytes were stimulated by rm-IL-23 (ELISA). The class given is cell-based. To be noted: Splenocyte, inhibition of IL-17 production, rm-IL-23 1 nmol/L, 72 hours. The procedure: Effect on Production of IL-17 Induced when Mouse Splenocytes were Stimulated by Recombinant Mouse Interleukin-23 (rm-IL-23)
RPMI1640 media (Sigma-Aldrich) were used as a medium, to which 50 units/mL penicillin G potassium/50 μg/mL streptomycin (Gibco) and […] 2-mercaptoethanol (Sigma-Aldrich) were added, and then thereto was added 10% of fetal calf serum (FCS; Cell Culture Technology) which was treated at 56° C. for 30 minutes to be inactivated, and the mixture was used in the Test. The test compound was dissolved in dimethylsulfoxide and then diluted with 10% FCS-containing RPMI1640 medium to a desired concentration to be used. The spleens were aseptically taken out from 6 to 7 week-old male DBA/1J mice (Charles River Japan, Inc.) and a single cell suspension of splenocytes was prepared, which was hemolyzed by hypotonic treatment with a mixed solution of 0.83% aqueous solution of ammonium chloride and Tris-HCl buffer of pH 7.65 (9:1). A cell suspension prepared by using 10% FCS-containing RPMI1640 medium was added to a flat-bottomed 96 well microtestplate (Coaster) at 2×10^5 cells/well. Thereto were added test compounds and rm-IL-23 (R&D systems) were diluted with a medium to 1 to 1,000 nmol/L and 1 nmol/L of the final concentration, respectively, and the mixture was cultured at 37° C., 5% carbon dioxide and 95% air for 72 hours. After completion of the culture, culture supernatant was sampled and production amounts of IL-17 therein were determined by ELISA method. After sampling the supernatant, WST-8 (Seikagaku Corporation) was added at 10 μl/well and cultured at 37° C., 5% carbon dioxide and 95% air for 4 hours. Then, absorbance (O.D.: Optical Density) at 450 nm was measured by a microplate reader and the value was adopted as an index of cell survivability. An inhibition rate was calculated according to the following formula on the basis of an average of production amounts of IL-17 and O.D. values of the well containing a test compound of each concentration. Inhibition (%)=(1−(Average value of well with addition of test compound)/(Average value of well without addition of test compound))×100
Based on the dose-response curve obtained by plotting the inhibition rate in the longitudinal axis and the concentration in the horizontal axis, the concentration of the compound which inhibits the level to 50% of the value of the control group (IC50) (nmol/L) was determined by linear regression analysis.
(In general: In an ELISA, binding on a coated surface is turned into a signal by an enzyme label.)
In the case of `Cc1c(C(=O)Nc2cnc(N3CCC(CCO)CC3)c(C#N)c2)cnn1-c1ccc(Cl)cc1` [Example 51, 1-(4-chlorophenyl)-N-{5-cyano-6-[4-(2-hydroxyethyl)piperidin-1-yl]pyridin-3-yl}-5-methyl-1H-pyrazole-4-carboxamide], the IC50 was 53.5 nM.

In the case of `CC(=O)OC(C)C1CCN(c2ncc(NC(=O)c3cnn(-c4ccc(C(F)(F)F)cn4)c3C)cc2C)CC1` (stereo not shown) [Example 52, acetic acid {1-[1-(3-methyl-5-{5-methyl-1-[5-(trifluoromethyl)pyridin-2-yl]-1H-pyrazole-4-carboxamide}pyridin-2-yl)piperidin-4-yl]ethyl}ester], the IC50 came out at 53.1 nM.

Regarding `COC(C)C1CCN(c2ncc(NC(=O)c3cnn(-c4ccc(C(F)(F)F)cn4)c3C)cc2C)CC1` (stereo not shown) [Example 53, N-{6-[4-(1-methoxyethyl)piperidin-1-yl]-5-methylpyridin-3-yl}-5-methyl-1-[5-(trifluoromethyl)pyridin-2-yl]-1H-pyrazole-4-carboxamide], the IC50 is 51.8 nM.

On to `Cc1cc(NC(=O)c2cnn(-c3ccc(F)cc3)c2C)cnc1N1CCC(C(C)(C)O)CC1` [Example 54, 1-(4-fluorophenyl)-N-{6-[4-(1-hydroxy-1-methylethyl)piperidin-1-yl]-5-methylpyridin-3-yl}-5-methyl-1H-pyrazole-4-carboxamide], for which the IC50 was 51 nM.

`Cc1cc(NC(=O)c2cnn(-c3ccc(C(F)(F)F)cn3)c2C)cnc1N1CCC(C(C)O)CC1` (stereo not shown) [Example 55, N-{6-[4-(1-hydroxyethyl)piperidin-1-yl]-5-methylpyridin-3-yl}-5-methyl-1-[5-(trifluoromethyl)pyridin-2-yl]-1H-pyrazole-4-carboxamide]: the IC50 is 49.6 nM.

For `Cc1ccc(-n2ncc(C(=O)Nc3cnc(N4CCC(C(C)(C)O)CC4)c(C)c3)c2C)cc1` [Example 56, N-{6-[4-(1-hydroxy-1-methylethyl)piperidin-1-yl]-5-methylpyridin-3-yl}-5-methyl-1-(4-methylphenyl)-1H-pyrazole-4-carboxamide], the IC50 came to 44.4 nM.

On to `Cc1ccc(-n2ncc(C(=O)Nc3cnc(N4CCC(CC(C)(C)O)CC4)c(C)c3)c2C)nc1` [Example 57, N-{6-[4-(2-hydroxy-2-methylpropyl)piperidin-1-yl]-5-methylpyridin-3-yl}-5-methyl-1-(5-methylpyridin-2-yl)-1H-pyrazole-4-carboxamide], for which the IC50 was 36.7 nM.

As for `Cc1cc(NC(=O)c2cnn(-c3ccc(Cl)cn3)c2C)cnc1N1CCC(C(C)(C)O)CC1` [Example 58, 1-(5-chloropyridin-2-yl)-N-{6-[4-(1-hydroxy-1-methylethyl)piperidin-1-yl]-5-methylpyridin-3-yl}-5-methyl-1H-pyrazole-4-carboxamide], the IC50 was found to be 33 nM.

In the case of `Cc1cc(NC(=O)c2cnn(-c3ncc(Cl)cc3Cl)c2C)cnc1N1CCC(C(C)(C)O)CC1` [Example 59, 1-(3,5-dichloropyridin-2-yl)-N-{6-[4-(1-hydroxy-1-methylethyl)piperidin-1-yl]-5-methylpyridin-3-yl}-5-methyl-1H-pyrazole-4-carboxamide], the IC50 is 31.8 nM.

Regarding `Cc1cc(NC(=O)c2cnn(-c3ccc(F)cn3)c2C)cnc1N1CCC(CC(C)(C)O)CC1` [Example 60, 1-(5-fluoropyridin-2-yl)-N-{6-[4-(2-hydroxy-2-methylpropyl)piperidin-1-yl]-5-methylpyridin-3-yl}-5-methyl-1H-pyrazole-4-carboxamide], the IC50 was found to be 30.4 nM.

On to `Cc1cc(NC(=O)c2cnn(-c3ccc(C(F)(F)F)cc3)c2C)cnc1N1CCC(C(C)(C)O)CC1` [Example 61, N-{6-[4-(1-hydroxy-1-methylethyl)piperidin-1-yl]-5-methylpyridin-3-yl}-5-methyl-1-[4-(trifluoromethyl)phenyl]-1H-pyrazole-4-carboxamide], for which the IC50 was determined as 19.4 nM.

`Cc1cc(NC(=O)c2cnn(-c3ccc(C(F)(F)F)cn3)c2C)cnc1N1CCC(C(C)(C)O)CC1` [Example 62, N-{6-[4-(1-hydroxy-1-methylethyl)piperidin-1-yl]-5-methylpyridin-3-yl}-5-methyl-1-[5-(trifluoromethyl)pyridin-2-yl]-1H-pyrazole-4-carboxamide]: the IC50 is 17 nM.

Turning to `Cc1cc(NC(=O)c2cnn(-c3ccc(Cl)cc3)c2C)cnc1N1CCC(C(C)(C)O)CC1` [Example 63, 1-(4-chlorophenyl)-N-{6-[4-(1-hydroxy-1-methylethyl)piperidin-1-yl]-5-methylpyridin-3-yl}-5-methyl-1H-pyrazole-4-carboxamide], the concentration for half-maximal inhibition (IC50) amounted to 15.6 nM.

In the case of `Cc1cc(NC(=O)c2cnn(-c3ccc(C4CC4)cn3)c2C)cnc1N1CCC(CC(C)(C)O)CC1` [Example 64, 1-(5-cyclopropylpyridin-2-yl)-N-{6-[4-(2-hydroxy-2-methylpropyl)piperidin-1-yl]-5-methylpyridin-3-yl}-5-methyl-1H-pyrazole-4-carboxamide], the IC50 came out at 12 nM.

Consider `Cc1cc(NC(=O)c2cnn(-c3ccc(C(F)(F)F)cn3)c2C)cnc1N1CCC(CC(C)(C)O)CC1` [Example 65, N-{6-[4-(2-hydroxy-2-methylpropyl)piperidin-1-yl]-5-methylpyridin-3-yl}-5-methyl-1-[5-(trifluoromethyl)pyridin-2-yl]-1H-pyrazole-4-carboxamide], for which the IC50 is 5.35 nM.

For the compound `Cc1c(C(=O)Nc2cnc(N3CCC(=O)CC3)c(C3CC3)c2)cnn1-c1ccc(Cl)cc1` [Example 70, 1-(4-chlorophenyl)-N-[5-cyclopropyl-6-(piperidin-4-on-1-yl)pyridin-3-yl]-5-methyl-1H-pyrazole-4-carboxamide], the IC50 worked out at 205 nM.

In the case of `Cc1c(C(=O)Nc2cnc(N3CCC(CCO)CC3)c(Cl)c2)cnn1-c1ccc(Cl)cc1` [Example 74, N-{5-chloro-6-[4-(2-hydroxyethyl)piperidin-1-yl]pyridin-3-yl}-1-(4-chlorophenyl)-5-methyl-1H-pyrazole-4-carboxamide], the IC50 turned out to be 87.7 nM.

As to `Cc1cc(NC(=O)c2c[nH]c(-c3ccc(C(F)(F)F)cc3)n2)cnc1N1CCC(C(C)(C)O)CC1` [Example 75, N-{6-[4-(1-hydroxy-1-methylethyl)piperidin-1-yl]-5-methylpyridin-3-yl}-2-[4-(trifluoromethyl)phenyl]-1H-imidazole-4-carboxamide], the IC50 stood at 109 nM.

With `Cc1cc(NC(=O)c2cnc(-c3ccc(C(F)(F)F)cc3)n2C)cnc1N1CCC(C(C)(C)O)CC1` [Example 76, N-{6-[4-(1-hydroxy-1-methylethyl)piperidin-1-yl]-5-methylpyridin-3-yl}-3-methyl-2-[4-(trifluoromethyl)phenyl]-3H-imidazole-4-carboxamide], the IC50 is 30.4 nM.

In the case of `Cc1cc(NC(=O)c2ccc(-c3ccc(Cl)cc3)s2)cnc1N1CCC(C(C)(C)O)CC1` [Example 78, 5-(4-chlorophenyl)-N-{6-[4-(1-hydroxy-1-methylethyl)piperidin-1-yl]-5-methylpyridin-3-yl}thiophene-2-carboxamide], the IC50 came out at 15.6 nM.

Turning to `Cc1cc(NC(=O)c2csc(-c3ccc(Cl)cc3)c2)cnc1N1CCC(C(C)(C)O)CC1` [Example 79, 2-(4-chlorophenyl)-N-{6-[4-(1-hydroxy-1-methylethyl)piperidin-1-yl]-5-methylpyridin-3-yl}thiophene-4-carboxamide], the IC50 was determined as 43.6 nM.

Consider `Cc1cc(NC(=O)c2cc(-c3ccc(Cl)cc3)cs2)cnc1N1CCC(C(C)(C)O)CC1` [Example 80, 4-(4-chlorophenyl)-N-{6-[4-(1-hydroxy-1-methylethyl)piperidin-1-yl]-5-methylpyridin-3-yl}thiophene-2-carboxamide], for which the IC50 is 185 nM.

On to `Cc1cc(NC(=O)c2cnc(-c3ccc(Cl)cc3)s2)cnc1N1CCC(C(C)(C)O)CC1` [Example 81, 2-(4-chlorophenyl)-N-{6-[4-(1-hydroxy-1-methylethyl)piperidin-1-yl]-5-methylpyridin-3-yl}thiazole-5-carboxamide], for which the IC50 turned out to be 66.8 nM.

On to `Cc1cc(NC(=O)c2csc(-c3ccc(Cl)cc3)n2)cnc1N1CCC(C(C)(C)O)CC1` [Example 82, 2-(4-chlorophenyl)-N-{6-[4-(1-hydroxy-1-methylethyl)piperidin-1-yl]-5-methylpyridin-3-yl}thiazole-4-carboxamide], for which the IC50 was 91.1 nM.

`Cc1cc(NC(=O)c2cnn(-c3ccc(Cl)cc3)n2)cnc1N1CCC(C(C)(C)O)CC1` [Example 85, 2-(4-chlorophenyl)-N-{6-[4-(1-hydroxy-1-methylethyl)piperidin-1-yl]-5-methylpyridin-3-yl}-2H-[1,2,3]triazole-4-carboxamide]: the IC50 amounted to 67.6 nM.

By IC50 is commonly meant the point on the concentration scale where inhibition reaches its midpoint.
